# Assay results: publication PMC10600007, “Structures illustrate step-by-step mitochondrial transcription initiation” (Nature, 2023)
# T1: y-mtRNAP–Mtf1 (ΔN100 y-mtRNAP with Mtf1) (Saccharomyces cerevisiae, UniProt P13433)
# T1 construct: gene RPO41; RPO41 lacking 100 N-terminal residues, His6 tag removed by TEV; Mtf1 His6-tagged (removal not described); both from E. coli; complex assembled on pre-melted promoter DNA; with Mitochondrial transcription factor 1
# T1 sequence (P13433 101-1351): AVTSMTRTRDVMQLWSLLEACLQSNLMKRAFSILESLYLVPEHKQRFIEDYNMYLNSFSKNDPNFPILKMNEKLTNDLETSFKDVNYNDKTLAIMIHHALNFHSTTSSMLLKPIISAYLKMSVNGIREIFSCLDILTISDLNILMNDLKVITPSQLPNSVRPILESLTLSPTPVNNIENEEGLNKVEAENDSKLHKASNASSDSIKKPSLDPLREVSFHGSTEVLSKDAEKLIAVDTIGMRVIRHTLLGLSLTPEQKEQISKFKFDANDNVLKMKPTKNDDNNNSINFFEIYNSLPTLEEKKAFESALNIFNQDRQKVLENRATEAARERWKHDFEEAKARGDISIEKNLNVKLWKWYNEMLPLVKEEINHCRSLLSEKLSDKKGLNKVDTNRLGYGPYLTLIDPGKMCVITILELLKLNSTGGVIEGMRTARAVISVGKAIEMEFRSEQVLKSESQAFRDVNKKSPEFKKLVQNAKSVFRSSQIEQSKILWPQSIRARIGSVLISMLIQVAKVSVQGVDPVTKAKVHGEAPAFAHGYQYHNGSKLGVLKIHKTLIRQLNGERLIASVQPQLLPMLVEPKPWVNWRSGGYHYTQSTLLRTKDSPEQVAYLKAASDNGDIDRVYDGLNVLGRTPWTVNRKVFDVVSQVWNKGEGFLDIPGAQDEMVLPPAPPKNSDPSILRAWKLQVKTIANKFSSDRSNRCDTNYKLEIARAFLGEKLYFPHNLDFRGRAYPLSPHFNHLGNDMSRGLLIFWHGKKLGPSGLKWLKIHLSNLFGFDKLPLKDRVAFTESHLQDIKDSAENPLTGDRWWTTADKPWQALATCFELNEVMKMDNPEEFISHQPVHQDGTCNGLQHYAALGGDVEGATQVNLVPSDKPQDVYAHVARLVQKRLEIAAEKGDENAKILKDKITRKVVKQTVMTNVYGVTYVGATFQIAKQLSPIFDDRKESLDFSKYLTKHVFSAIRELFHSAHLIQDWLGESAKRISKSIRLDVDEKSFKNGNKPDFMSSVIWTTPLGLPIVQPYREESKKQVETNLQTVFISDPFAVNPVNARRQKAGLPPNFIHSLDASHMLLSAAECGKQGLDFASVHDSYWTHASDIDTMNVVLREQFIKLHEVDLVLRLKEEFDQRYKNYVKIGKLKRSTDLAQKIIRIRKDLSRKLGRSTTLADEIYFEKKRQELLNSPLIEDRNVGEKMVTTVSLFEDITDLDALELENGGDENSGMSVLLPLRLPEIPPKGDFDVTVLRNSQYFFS
# T1 sequence (P14908 2-341 partner): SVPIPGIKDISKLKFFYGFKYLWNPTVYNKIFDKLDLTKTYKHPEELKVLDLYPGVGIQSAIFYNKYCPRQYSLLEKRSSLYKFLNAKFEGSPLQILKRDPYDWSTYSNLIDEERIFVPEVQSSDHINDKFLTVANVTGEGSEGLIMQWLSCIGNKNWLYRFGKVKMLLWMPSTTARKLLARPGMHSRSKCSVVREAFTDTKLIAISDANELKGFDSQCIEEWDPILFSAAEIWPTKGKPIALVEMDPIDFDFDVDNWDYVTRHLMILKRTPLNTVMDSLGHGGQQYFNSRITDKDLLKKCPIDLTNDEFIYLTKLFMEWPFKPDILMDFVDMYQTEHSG
# T2: ΔN100 y-mtRNAP (yeast mitochondrial RNA polymerase, Rpo41, 100 amino-terminal residues deleted) (S. cerevisiae, UniProt P13433 101-1351)
# T2 construct: S. cerevisiae mitochondrial RNA polymerase Rpo41 (y-mtRNAP), UniProt P13433; 100 amino-terminal residues deleted; end residue S1351; Plasmid ProEXHTB; In the structures the chain is traced only from I386 (A407 in IC4) to S1351 with gaps; source: E. coli BL21 RIL Codon Plus, purified (DEAE/Ni-Sepharose, heparin, TEV cleavage, second Ni-Sepharose flow-through)
# T2 sequence (looked up): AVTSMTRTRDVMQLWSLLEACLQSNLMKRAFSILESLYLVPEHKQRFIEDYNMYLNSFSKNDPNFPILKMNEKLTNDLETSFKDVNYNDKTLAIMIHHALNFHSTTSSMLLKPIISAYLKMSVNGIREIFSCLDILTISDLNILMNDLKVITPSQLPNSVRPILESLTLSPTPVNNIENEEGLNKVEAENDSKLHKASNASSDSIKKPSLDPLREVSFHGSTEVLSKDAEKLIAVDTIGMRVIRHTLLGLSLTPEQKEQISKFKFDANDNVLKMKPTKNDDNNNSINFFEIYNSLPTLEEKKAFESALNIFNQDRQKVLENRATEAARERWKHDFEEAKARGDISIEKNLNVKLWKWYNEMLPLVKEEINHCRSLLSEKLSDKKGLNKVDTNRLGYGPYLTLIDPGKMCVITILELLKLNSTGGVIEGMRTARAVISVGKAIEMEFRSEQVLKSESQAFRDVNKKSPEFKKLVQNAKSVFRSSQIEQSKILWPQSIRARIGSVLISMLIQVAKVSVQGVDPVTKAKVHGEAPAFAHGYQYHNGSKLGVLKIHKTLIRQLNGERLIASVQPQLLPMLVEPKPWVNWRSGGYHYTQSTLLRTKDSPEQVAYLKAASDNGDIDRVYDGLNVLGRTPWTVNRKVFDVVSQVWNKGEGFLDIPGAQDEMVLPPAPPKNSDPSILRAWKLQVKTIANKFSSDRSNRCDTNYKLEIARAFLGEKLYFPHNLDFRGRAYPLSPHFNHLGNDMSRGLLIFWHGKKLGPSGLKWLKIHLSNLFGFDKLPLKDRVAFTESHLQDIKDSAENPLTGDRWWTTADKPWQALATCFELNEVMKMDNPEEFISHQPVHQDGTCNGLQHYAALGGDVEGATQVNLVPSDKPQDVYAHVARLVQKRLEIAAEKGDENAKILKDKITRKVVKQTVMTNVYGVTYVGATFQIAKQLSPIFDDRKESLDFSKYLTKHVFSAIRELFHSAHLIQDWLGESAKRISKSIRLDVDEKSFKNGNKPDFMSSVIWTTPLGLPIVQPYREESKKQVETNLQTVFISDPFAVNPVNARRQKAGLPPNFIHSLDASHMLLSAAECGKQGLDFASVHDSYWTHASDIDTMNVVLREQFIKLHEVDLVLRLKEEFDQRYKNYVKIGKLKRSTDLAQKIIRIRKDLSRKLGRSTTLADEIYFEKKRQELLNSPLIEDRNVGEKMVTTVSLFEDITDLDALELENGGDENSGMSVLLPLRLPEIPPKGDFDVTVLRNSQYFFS
# Columns and labels:
# [1] = biological target: T1, y-mtRNAP–Mtf1 (ΔN100 y-mtRNAP with Mtf1); assay: cryo-EM structure (IC2, […] Å); assay type: binding; settings: pre-melted 33-bp bubble promoter DNA; Mg2+; pH 7.0; 4 °C; two GTP at +1 (P site) and +2 (N site) of polymerase active site
# [2] = biological target: T2, ΔN100 y-mtRNAP (yeast mitochondrial RNA …); assay: cryo-EM structure; PmIC of ΔN100 y-mtRNAP, Mtf1 and pre-melted bubble promoter DNA (molar ratio 1:1.2:1.2, 2 h, 4 °C), purified by SEC, then incubated with NTPs or pppGpG 2 h at 4 °C to give IC2, IC4-IC8 and IC8'; 50 mM Bis-tris propane pH 7.0, 100 mM NaCl, 5 mM MgCl2, 1 mM EDTA, 2 mM DTT; settings: both partners purified
binding result [2],Molecule,"cryo-EM structure (IC2, 3.47 Å) [1]"
–,Nc1nc2c(ncn2[C@@H]2O[C@H](COP(=O)(O)OP(=O)(O)OP(=O)(O)O)[C@@H](O)[C@H]2O)c(=O)[nH]1 [GTP],IC2 was captured with two GTP molecules bound at the transcription start site poised for catalysis
binds,"Mtf1 (yeast mitochondrial transcription factor) (natural protein, S. cerevisiae, S. cerevisiae Mtf1, mitochondrial transcription factor; wild type; traced in the structures from S2 to at most G341 (end residue); Plasmid pTrcHisC; No removal of the His6 tag is described; N-terminal domain residues 1-252, C-terminal domain residues 255-341 are named, so the whole protein is likely; source: E. coli BL21, purified (DEAE/Ni-Sepharose, heparin-Sepharose)) SVPIPGIKDISKLKFFYGFKYLWNPTVYNKIFDKLDLTKTYKHPEELKVLDLYPGVGIQSAIFYNKYCPRQYSLLEKRSSLYKFLNAKFEGSPLQILKRDPYDWSTYSNLIDEERIFVPEVQSSDHINDKFLTVANVTGEGSEGLIMQWLSCIGNKNWLYRFGKVKMLLWMPSTTARKLLARPGMHSRSKCSVVREAFTDTKLIAISDANELKGFDSQCIEEWDPILFSAAEIWPTKGKPIALVEMDPIDFDFDVDNWDYVTRHLMILKRTPLNTVMDSLGHGGQQYFNSRITDKDLLKKCPIDLTNDEFIYLTKLFMEWPFKPDILMDFVDMYQTEHSG",–
